Laboratory results published in paper PMC11215307, “Targeting dermatophyte Cdc42 and Rac GTPase signaling to hinder hyphal elongation and virulence” (iScience, 2024).
Entries after “also recorded” stand apart in the source; their conditions may differ.

Key:
[1] = system: T. rubrum conidial germination; assay: T. rubrum conidia germination assay; format: cell-based, Trichophyton rubrum; details: for Effect on conidial germination in T. rubrum: in cellulo screen of small GTPase inhibitors; for IC50: overnight incubation at 28°C in Sabouraud medium, calcofluor white staining
Method: Fungal conidia (2 × 10^6) were subjected to an overnight incubation at 28°C in Sabouraud medium, supplemented with 1% DMSO (control) or the Rac and/or Cdc42 inhibitors; 10, 32, and 100 μM EHop-016; 100, 320, and 1000 μM AZA1; 10, 32, and 100 μM EHT1864; 10, 100, and 1000 μM CASIN; 200, 500, and 1000 μM NSC23766; 20, 200, and 2000 μM ketorolac; 100 μM MBQ-167; 1 and 10 μM ML-141; 1000 μM ZCL278; and 50 μM ITX3. Following the incubation, the fungal conidia were washed twice with saline and then stained with 0.2 mM calcofluor white. The germinated and ungerminated conidia were subsequently observed and counted under a fluorescent microscope (Olympus BX53).

[2] = system: T. rubrum mycelial growth; assay: Mycelial growth inhibition on modified 1/10 Sabouraud glucose agar; format: cell-based, Trichophyton rubrum; details: in cellulo screen of small GTPase inhibitors
Method: Trichophyton rubrum CBS118892, Escherichia coli BL21, and Agrobacterium tumefaciens EHA105 were used.[74]^,[78]^,[79] E. coli BL21 was cultured in LB medium with appropriate antibiotics at 37°C. A. tumefaciens was cultured in LB or Agrobacterium induction medium supplemented with 0.2 mM acetosyringone at 28°C.[73] T. rubrum was cultured at 28°C. Conidia of T. rubrum were prepared using a previously described method.[80] Sabouraud agar or RPMI with MOPS agar was used for hyphal formation. To evaluate mycelial growth inhibition by inhibitors, a modified 1/10 Sabouraud glucose agar (containing 0.2% bacto peptone, 0.1% glucose, 0.1% KH2PO4, 0.1% MgSO4 7H2O, 1.5% bacto agar, pH unadjusted) was used.

[3] = system: TrRac; assay: Guanine nucleotide exchange assay of TrRac promoted by TrCdc24 DH-PH (bodipy-FL GTP fluorescence); format: biochemical, Trichophyton rubrum; details: fluorescence at 60 min
Method: (§1) One μM of TrRac or TrCdc42-His was mixed with 0.1 μM bodipy-FL GTP (Thermo Fisher, Waltham, MA, USA) in Buffer A and allowed to equilibrate for 3 min at 20°C–25°C. Ammonium sulfate, EDTA, or recombinant TrCdc24 DH-PH proteins were incubated with the compounds or vehicles alone (final DMSO concentration: 1%) at the indicated concentrations in the reaction buffer for 20 min at room temperature. The reaction was initiated by combining TrRac or TrCdc42/bodipy-FL GTP (100 μL) with Cdc24DH-PH (50 μL) at room temperature. The change in bodipy-FL-GTP fluorescence (excitation: 485 nm, emission: 535 nm) was monitored for 60 min using a Berthold tristar2 LB942.
(§2) Statistical analyses were conducted using Microsoft Excel and Prism 10, GraphPad. All experiments were performed more than three times. Statistical significance was determined using Student’s t test, one-way analysis of variance, and Tukey–Kramer test. IC50 values were ascertained by plotting the fluorescent intensity (% of control) at 60 min using a specific formula: IC50=x2−(x2/x1)^(50−y2/y2−y1)

[4] = system: TrCdc42; assay: Guanine nucleotide exchange assay of TrCdc42-His promoted by TrCdc24 DH-PH (bodipy-FL GTP fluorescence); format: biochemical, Trichophyton rubrum; details: for IC50: guanine nucleotide exchange of TrCdc42 by TrCdc24, fluorescence at 60 min; for Selectivity between fungal Cdc42 and Rac: comparison of TrCdc42 and TrRac IC50 (Table 1)
Method: as §1, §2

[5] = system: T. rubrum; assay: Invertebrate (silkworm) infection model of dermatophytosis; format: in vivo, Bombyx mori; details: conidia (5 × 10^6) injected into silkworm hemolymph
Method: Eggs from silkworms were procured from Ehime-Sansh Co., Ltd. (Japan) and reared following a method described previously.[86]^,[87] Fifth instar silkworm larvae were nourished with an artificial diet (Silkmate 2S; Ehime-Sanshu Co., Ltd., Japan) overnight.[88]^,[89] Dermatophyte infection was conducted in accordance with a previously outlined procedure.[53] Conidia (5 × 10^6) of T. rubrum were injected into the silkworm hemolymph.

[6] = system: T. rubrum growth on human nail fragments; assay: In vitro nail infection assay; format: cell-based, Trichophyton rubrum; details: 2.6% (60 mM) EHop-016, four applications every 24 h, observed after 36 days at 28°C, versus vehicle
Method: The conidial suspension (1 × 10^4/10 μL/nail fragment) of T. rubrum was administered to autoclaved nail fragments obtained from an adult volunteer (ethics approval, No. R3-6, Musashino University, Japan) and incubated at 28°C. After 24 h, either the vehicle (30% DMSO/5% Tween 80) or 60 mM EHop-016 was applied to the nail fragment. A total of four applications were administered every 24 h. The nails were examined after 36 days of incubation.

Row | Molecule | Effect on conidial germination in T. rubrum [1] | Effect on mycelial growth in T. rubrum [2] | IC50 ([1]; Trichophyton rubrum) [µM] | Inhibitory activity in conidial germination inhibition assay ([1]; at 100 μM) | IC50 [3] [µM] | IC50 [4] [µM] | IC50 [1] [µM] | Survival of silkworms infected with T. rubrum [5] | Selectivity between fungal Cdc42 and Rac [4] | T. rubrum growth on human nails [6]
1 | C[C@H]1CCC/C=C/[C@@H]2C[C@H](O)C[C@H]2[C@H](O)/C=C/C(=O)O1 [Brefeldin A] | did not | did not | – | – | – | – | – | – | – | –
2 | CCn1c2ccccc2c2cc(-n3nncc3-c3ccccc3)ccc21 [MBQ-167] | – | – | > 100 | did not show any inhibitory activity | > 100 | > 100 | – | – | – | –
3 | Cc1cc(/C=c2/sc3nc4ccccc4n3c2=O)c(C)n1-c1ccccc1 [ITX3] | – | – | – | – | > 50 | > 50 | > 50 | – | – | –
4 | Cc1cc2cc(Nc3ccnc(Nc4ccc5[nH]c(C)cc5c4)n3)ccc2[nH]1 [AZA1] | hindered | hindered | 127 | – | 127 | 147 | – | – | – | –
5 | CCn1c2ccccc2c2cc(Nc3ccnc(NCCCN4CCOCC4)n3)ccc21 [EHop-016] | – | – | 45 | – | 137 | 40 | – | significantly extended the survival | higher selectivity for Cdc42 than for Rac | no fungal lawn was observed; also recorded: lesser T. rubrum growth on the nails
6 | COc1ccc(C2CC(c3ccccc3)=NN2c2ccc(S(N)(=O)=O)cc2)cc1 (centres unmarked) [ML-141] | – | – | – | – | > 1000 | > 1000 | 1.7 | – | – | –
7 | OCCNC1CCCc2c1[nH]c1ccc(-c3ccccc3)cc21 (centres unmarked) [CASIN] | – | – | – | – | 518 | 192 | 20 | – | – | –
8 | NAV2729 | did not | did not | – | – | – | – | – | – | – | –
9 | Cc1cc(C)nc(NS(=O)(=O)c2ccc(NC(=S)NC(=O)COc3ccc(Br)cc3Cl)cc2)n1 [ZCL278] | – | – | – | – | > 1000 | > 1000 | > 1000 | – | – | –
10 | O=C(c1ccccc1)c1ccc2n1CCC2C(=O)O (centres unmarked) [Ketorolac] | – | – | 363 | – | 1420 | 889 | – | – | – | –
11 | O=c1cc(CN2CCOCC2)occ1OCCCCCSc1ccnc2cc(C(F)(F)F)ccc12 [EHT1864] | hindered | hindered | 16 | – | > 1000 | 154 | – | – | higher selectivity for Cdc42 than for Rac | –
12 | Rhosin | did not | did not | – | – | – | – | – | – | – | –
13 | CCN(CC)CCCC(C)Nc1nc(C)cc(Nc2ccc3nc(C)cc(N)c3c2)n1 (centres unmarked) [NSC23766] | hindered | hindered | 640 | – | 477 | 368 | – | – | – | –
